Measurements as given in PMC3433414, “Oral Administration of the Pimelic Diphenylamide HDAC Inhibitor HDACi 4b Is Unsuitable for Chronic Inhibition of HDAC Activity in the CNS In Vivo” (PLoS ONE, 2012).
Where two headings read alike, the source gives them in different places. One block for each compound: values may come before it.

Tests used:
[1] = tested on: endogenous Class I HDACs/HDAC6; assay: Cellular HDAC assay, Boc_Lys_Ac substrate, Jurkat E6.1 cells; format: cell-based
Experimental: Briefly, Jurkat E6.1 cells (obtained from the European Collection of Cell Cultures (ECACC)) were plated into 384 well plates at 75,000 cells/well in cellular assay buffer (RPMI without phenol red, 0.1% Fetal Bovine Serum, 10 mM HEPES, 1 mM Sodium Pyruvate). […] Fluorescent counts were read the following morning on the Perkin Elmer EnVision.
Each compound was tested in duplicate in concentration-response format on 3 separate days. […] A full dose response of reference compound was always included alongside the profiling, to ensure that assay parameters remained within acceptable limits.

[2] = Cerep binding, antagonist radioligand; settings: 10 μM
Description: (§1) In addition to the HDAC profiling performed, we also queried 4b for any apparent potential off-target effects, which could complicate any finding of efficacy or adverse events in vivo due to ‘polypharmacy’. This was accomplished by screening against a ‘diversity panel’ of 72 binding and 29 enzyme assays, comprised of roughly equal numbers of selective central and peripheral therapeutically relevant targets (Cerep Diversity Profile). This panel included representative targets from diverse enzyme families, G protein coupled receptors, steroid nuclear receptors, voltage- and ligand-gated ion channels. While not totally inclusive, it is a useful tool for discovery compounds to assess their viability as proof of concept molecules to specifically query a particular target. 4b was initially screened at 10 µM in duplicate. The full set of results is provided as Table S1. […] This clean in vitro profile was considered acceptable to proceed to ADME and pharmacokinetic studies.

[3] = molecular target: T1, 5‐HT transporter (h) (Homo sapiens, UniProt P31645); assay: Cerep binding, antagonist radioligand; settings: read-out: % inhibition of control specific binding
T1 construct: purchased Cerep (Diversity Profile)
Description: as §1

[4] = tested on: Ca2+ channel (L, verapamil site) (phenylalkylamine); assay: Cerep binding, antagonist radioligand; settings: 10 μM
Description: as §1

[5] = tested on: Cl‐channel (GABA‐gated); assay: Cerep binding, antagonist radioligand; settings: 10 μM
Description: as §1

[6] = molecular target: T2, D2S (h) (Homo sapiens, UniProt P14416); assay: Cerep binding, antagonist radioligand; settings: read-out: % inhibition of control specific binding
T2 construct: purchased Cerep (Diversity Profile)
Description: as §1

[7] = molecular target: T3, D3 (h) (Homo sapiens, UniProt P35462); assay: Cerep binding, antagonist radioligand; settings: read-out: % inhibition of control specific binding
T3 construct: purchased Cerep (Diversity Profile)
Description: as §1

[8] = molecular target: T4, D4.4 (h) (Homo sapiens, UniProt P21917); assay: Cerep binding, antagonist radioligand; settings: read-out: % inhibition of control specific binding
T4 construct: purchased Cerep (Diversity Profile)
Description: as §1

[9] = molecular target: T5, H1 (h) (Homo sapiens, UniProt P35367); assay: Cerep binding, antagonist radioligand; settings: read-out: % inhibition of control specific binding
T5 construct: purchased Cerep (Diversity Profile)
Description: as §1

[10] = tested on: I2; assay: Cerep binding, antagonist radioligand; settings: 10 μM
Description: as §1

[11] = tested on: KV channel; assay: Cerep binding, antagonist radioligand; settings: 10 μM
Description: as §1

[12] = molecular target: T6, NK3 (h) (Homo sapiens, UniProt P29371); assay: Cerep binding, antagonist radioligand; settings: read-out: % inhibition of control specific binding
T6 construct: purchased Cerep (Diversity Profile)
Description: as §1

[13] = molecular target: T7, choline transporter (CHT1) (h) (Homo sapiens, UniProt Q9GZV3); assay: Cerep binding, antagonist radioligand; settings: read-out: % inhibition of control specific binding
T7 construct: purchased Cerep (Diversity Profile)
Description: as §1

[14] = molecular target: T8, dopamine transporter (h) (Homo sapiens, UniProt Q01959); assay: Cerep binding, antagonist radioligand; settings: read-out: % inhibition of control specific binding
T8 construct: purchased Cerep (Diversity Profile)
Description: as §1

[15] = molecular target: T9, 2 (h) (Homo sapiens, UniProt P07550); assay: Cerep binding, agonist radioligand; settings: read-out: % inhibition of control specific binding
T9 construct: purchased Cerep (Diversity Profile)
Description: as §1

[16] = molecular target: T10, A2A (h) (Homo sapiens, UniProt P29274); assay: Cerep binding, agonist radioligand; settings: read-out: % inhibition of control specific binding
T10 construct: purchased Cerep (Diversity Profile)
Description: as §1

[17] = molecular target: T11, A3 (h) (Homo sapiens, UniProt P0DMS8); assay: Cerep binding, agonist radioligand; settings: read-out: % inhibition of control specific binding
T11 construct: purchased Cerep (Diversity Profile)
Description: as §1

[18] = molecular target: T12, AT2 (h) (Homo sapiens, UniProt P50052); assay: Cerep binding, agonist radioligand; settings: read-out: % inhibition of control specific binding
T12 construct: purchased Cerep (Diversity Profile)
Description: as §1

[19] = molecular target: T13, CB1 (h) (Homo sapiens, UniProt P21554); assay: Cerep binding, agonist radioligand; settings: read-out: % inhibition of control specific binding
T13 construct: purchased Cerep (Diversity Profile)
Description: as §1

[20] = molecular target: T14, CCK2 (CCKB) (h) (Homo sapiens, UniProt P32239); assay: Cerep binding, agonist radioligand; settings: read-out: % inhibition of control specific binding
T14 construct: purchased Cerep (Diversity Profile)
Description: as §1

[21] = tested on: GABA (non‐selective); assay: Cerep binding, agonist radioligand; settings: 10 μM
Description: as §1

[22] = molecular target: T15, H3 (h) (Homo sapiens, UniProt Q9Y5N1); assay: Cerep binding, agonist radioligand; settings: read-out: % inhibition of control specific binding
T15 construct: purchased Cerep (Diversity Profile)
Description: as §1

[23] = molecular target: T16, MC4 (h) (Homo sapiens, UniProt P32245); assay: Cerep binding, agonist radioligand; settings: read-out: % inhibition of control specific binding
T16 construct: purchased Cerep (Diversity Profile)
Description: as §1

[24] = molecular target: T17, NK2 (h) (Homo sapiens, UniProt P21452); assay: Cerep binding, agonist radioligand; settings: read-out: % inhibition of control specific binding
T17 construct: purchased Cerep (Diversity Profile)
Description: as §1

[25] = molecular target: T18, PR (h) (Homo sapiens, UniProt P06401); assay: Cerep binding, agonist radioligand; settings: read-out: % inhibition of control specific binding
T18 construct: purchased Cerep (Diversity Profile)
Description: as §1

[26] = molecular target: T19, TRH1 (h) (Homo sapiens, UniProt P34981); assay: Cerep binding, agonist radioligand; settings: read-out: % inhibition of control specific binding
T19 construct: purchased Cerep (Diversity Profile)
Description: as §1

[27] = molecular target: T20, V1a (h) (Homo sapiens, UniProt P37288); assay: Cerep binding, agonist radioligand; settings: read-out: % inhibition of control specific binding
T20 construct: purchased Cerep (Diversity Profile)
Description: as §1

[28] = molecular target: T21, V2 (h) (Homo sapiens, UniProt P30518); assay: Cerep binding, agonist radioligand; settings: read-out: % inhibition of control specific binding
T21 construct: purchased Cerep (Diversity Profile)
Description: as §1

[29] = molecular target: T22, CCK1 (CCKA) (h) (Homo sapiens, UniProt P32238); assay: Cerep binding, agonist radioligand (CCK-8S); settings: for inhibition at 10 µM: read-out: % inhibition of control specific binding
T22 construct: Cerep
T22 sequence (P32238 1-428): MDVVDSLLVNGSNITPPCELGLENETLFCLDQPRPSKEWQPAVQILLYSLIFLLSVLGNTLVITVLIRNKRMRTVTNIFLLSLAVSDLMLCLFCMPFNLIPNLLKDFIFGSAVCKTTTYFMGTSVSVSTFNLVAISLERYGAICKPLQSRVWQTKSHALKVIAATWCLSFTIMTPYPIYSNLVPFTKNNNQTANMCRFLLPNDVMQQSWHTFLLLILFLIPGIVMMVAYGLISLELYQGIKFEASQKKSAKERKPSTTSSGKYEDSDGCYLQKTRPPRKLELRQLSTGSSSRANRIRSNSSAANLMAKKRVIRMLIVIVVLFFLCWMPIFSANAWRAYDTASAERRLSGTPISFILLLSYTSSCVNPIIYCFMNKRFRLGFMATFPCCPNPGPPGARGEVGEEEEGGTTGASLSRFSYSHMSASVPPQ
Description: as §1
Supplementary file pone.0044498.s001.tif: Figure S1 Displacement of CCK-8S (agonist radioligand) from the CCK1 receptor by 4b and C1. (TIF) Click here for additional data file.

T6 sequence (P29371 whole entry): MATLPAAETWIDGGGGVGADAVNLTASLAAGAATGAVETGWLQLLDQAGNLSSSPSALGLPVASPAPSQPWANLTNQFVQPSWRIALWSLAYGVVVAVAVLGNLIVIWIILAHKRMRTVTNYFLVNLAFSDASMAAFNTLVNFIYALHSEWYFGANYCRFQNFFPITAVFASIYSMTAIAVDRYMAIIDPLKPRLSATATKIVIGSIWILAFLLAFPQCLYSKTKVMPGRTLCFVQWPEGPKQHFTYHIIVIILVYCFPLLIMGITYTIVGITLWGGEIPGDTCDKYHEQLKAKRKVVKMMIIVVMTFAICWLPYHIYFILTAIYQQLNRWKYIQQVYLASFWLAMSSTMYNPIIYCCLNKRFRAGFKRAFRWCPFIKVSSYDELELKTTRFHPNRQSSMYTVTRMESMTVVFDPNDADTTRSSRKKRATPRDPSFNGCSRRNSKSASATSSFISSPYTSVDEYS
T9 sequence (P07550 whole entry): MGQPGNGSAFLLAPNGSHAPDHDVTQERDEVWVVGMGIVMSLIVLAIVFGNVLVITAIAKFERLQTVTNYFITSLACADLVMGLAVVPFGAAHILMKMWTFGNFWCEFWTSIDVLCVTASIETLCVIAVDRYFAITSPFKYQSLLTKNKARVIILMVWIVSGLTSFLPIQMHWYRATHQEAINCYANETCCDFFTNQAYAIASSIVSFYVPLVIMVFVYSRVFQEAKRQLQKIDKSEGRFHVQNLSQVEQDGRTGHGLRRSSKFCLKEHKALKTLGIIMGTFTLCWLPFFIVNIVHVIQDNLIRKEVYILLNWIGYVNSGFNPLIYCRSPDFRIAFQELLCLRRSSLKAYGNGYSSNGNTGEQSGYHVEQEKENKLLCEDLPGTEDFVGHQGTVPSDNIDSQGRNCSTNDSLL
T18 sequence (P06401 whole entry): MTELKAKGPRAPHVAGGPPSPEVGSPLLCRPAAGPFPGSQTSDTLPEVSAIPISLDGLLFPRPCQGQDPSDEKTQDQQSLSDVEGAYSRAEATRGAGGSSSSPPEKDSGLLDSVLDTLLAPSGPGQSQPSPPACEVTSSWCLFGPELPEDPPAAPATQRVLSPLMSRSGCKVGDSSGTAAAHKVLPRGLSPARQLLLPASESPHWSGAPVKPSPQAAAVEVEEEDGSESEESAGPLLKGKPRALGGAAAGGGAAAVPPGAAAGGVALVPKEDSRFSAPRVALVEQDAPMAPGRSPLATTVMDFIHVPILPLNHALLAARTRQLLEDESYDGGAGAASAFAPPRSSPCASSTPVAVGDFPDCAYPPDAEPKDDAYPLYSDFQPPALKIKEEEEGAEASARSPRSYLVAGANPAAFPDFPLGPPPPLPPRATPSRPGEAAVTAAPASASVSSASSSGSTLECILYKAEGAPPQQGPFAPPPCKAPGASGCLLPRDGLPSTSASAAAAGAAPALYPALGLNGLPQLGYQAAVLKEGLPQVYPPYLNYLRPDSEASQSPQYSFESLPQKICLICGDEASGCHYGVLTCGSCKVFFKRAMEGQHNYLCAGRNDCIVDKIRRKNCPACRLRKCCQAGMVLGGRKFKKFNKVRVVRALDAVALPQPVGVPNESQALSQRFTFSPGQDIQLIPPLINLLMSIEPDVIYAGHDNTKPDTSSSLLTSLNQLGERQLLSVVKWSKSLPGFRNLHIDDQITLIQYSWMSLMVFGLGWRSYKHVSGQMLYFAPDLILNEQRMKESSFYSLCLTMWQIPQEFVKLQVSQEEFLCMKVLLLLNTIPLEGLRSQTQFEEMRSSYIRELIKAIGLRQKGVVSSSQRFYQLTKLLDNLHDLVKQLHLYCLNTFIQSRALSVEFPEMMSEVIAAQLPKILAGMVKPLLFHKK
T8 sequence (Q01959 whole entry): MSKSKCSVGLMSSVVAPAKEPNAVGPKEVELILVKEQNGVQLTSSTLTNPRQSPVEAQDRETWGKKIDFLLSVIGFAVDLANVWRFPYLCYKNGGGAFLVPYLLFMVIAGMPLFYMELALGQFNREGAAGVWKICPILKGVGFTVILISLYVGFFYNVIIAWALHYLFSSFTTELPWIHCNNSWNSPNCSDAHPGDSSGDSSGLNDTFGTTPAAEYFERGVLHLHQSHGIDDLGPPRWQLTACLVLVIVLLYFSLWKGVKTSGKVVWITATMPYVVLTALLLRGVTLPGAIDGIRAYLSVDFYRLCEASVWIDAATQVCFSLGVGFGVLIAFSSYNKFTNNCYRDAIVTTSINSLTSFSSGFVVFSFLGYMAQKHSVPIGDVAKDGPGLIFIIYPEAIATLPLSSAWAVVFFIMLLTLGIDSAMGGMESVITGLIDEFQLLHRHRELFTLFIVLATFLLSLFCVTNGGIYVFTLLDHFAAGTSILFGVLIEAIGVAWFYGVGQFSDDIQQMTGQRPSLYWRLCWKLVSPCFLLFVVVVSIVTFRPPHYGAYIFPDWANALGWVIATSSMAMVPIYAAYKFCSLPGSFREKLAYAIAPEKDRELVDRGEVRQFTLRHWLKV
T1 sequence (P31645 whole entry): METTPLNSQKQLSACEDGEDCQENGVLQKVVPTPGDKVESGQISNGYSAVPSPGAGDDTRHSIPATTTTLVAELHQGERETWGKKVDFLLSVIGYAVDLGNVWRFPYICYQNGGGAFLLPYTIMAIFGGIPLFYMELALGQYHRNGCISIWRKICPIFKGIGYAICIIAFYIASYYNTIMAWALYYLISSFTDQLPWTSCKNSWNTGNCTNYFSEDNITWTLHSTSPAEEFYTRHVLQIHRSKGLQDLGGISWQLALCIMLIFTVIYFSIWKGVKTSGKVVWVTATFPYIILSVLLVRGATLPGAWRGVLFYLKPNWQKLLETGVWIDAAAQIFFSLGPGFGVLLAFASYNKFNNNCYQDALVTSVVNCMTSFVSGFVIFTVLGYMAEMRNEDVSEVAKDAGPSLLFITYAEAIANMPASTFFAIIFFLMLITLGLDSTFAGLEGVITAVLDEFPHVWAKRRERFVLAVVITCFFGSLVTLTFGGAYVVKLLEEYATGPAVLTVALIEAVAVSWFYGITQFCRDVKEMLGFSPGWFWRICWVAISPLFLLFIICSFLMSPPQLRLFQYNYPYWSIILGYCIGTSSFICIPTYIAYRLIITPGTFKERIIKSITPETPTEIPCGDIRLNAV
T15 sequence (Q9Y5N1 whole entry): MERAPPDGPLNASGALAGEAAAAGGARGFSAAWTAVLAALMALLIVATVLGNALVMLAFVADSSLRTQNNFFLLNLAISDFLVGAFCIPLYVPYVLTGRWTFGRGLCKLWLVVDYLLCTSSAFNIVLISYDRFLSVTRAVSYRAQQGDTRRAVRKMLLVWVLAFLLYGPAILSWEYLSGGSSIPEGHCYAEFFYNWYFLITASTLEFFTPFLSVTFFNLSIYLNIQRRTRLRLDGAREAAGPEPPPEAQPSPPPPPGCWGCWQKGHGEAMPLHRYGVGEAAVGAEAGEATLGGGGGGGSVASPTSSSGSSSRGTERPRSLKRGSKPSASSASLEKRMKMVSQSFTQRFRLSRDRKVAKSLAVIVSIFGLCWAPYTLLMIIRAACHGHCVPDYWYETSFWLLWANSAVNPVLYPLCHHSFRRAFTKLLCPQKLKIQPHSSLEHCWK
T10 sequence (P29274 whole entry): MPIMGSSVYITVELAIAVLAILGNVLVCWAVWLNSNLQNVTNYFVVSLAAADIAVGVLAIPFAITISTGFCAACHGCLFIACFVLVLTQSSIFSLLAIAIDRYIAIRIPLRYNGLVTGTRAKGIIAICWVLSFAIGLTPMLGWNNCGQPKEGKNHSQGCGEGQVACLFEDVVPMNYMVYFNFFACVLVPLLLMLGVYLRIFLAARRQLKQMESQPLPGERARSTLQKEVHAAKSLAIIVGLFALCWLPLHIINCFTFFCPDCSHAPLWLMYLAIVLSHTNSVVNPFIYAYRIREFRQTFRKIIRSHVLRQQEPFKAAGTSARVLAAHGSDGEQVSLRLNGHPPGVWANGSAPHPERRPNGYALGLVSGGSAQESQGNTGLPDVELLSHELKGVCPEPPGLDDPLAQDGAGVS
T5 sequence (P35367 whole entry): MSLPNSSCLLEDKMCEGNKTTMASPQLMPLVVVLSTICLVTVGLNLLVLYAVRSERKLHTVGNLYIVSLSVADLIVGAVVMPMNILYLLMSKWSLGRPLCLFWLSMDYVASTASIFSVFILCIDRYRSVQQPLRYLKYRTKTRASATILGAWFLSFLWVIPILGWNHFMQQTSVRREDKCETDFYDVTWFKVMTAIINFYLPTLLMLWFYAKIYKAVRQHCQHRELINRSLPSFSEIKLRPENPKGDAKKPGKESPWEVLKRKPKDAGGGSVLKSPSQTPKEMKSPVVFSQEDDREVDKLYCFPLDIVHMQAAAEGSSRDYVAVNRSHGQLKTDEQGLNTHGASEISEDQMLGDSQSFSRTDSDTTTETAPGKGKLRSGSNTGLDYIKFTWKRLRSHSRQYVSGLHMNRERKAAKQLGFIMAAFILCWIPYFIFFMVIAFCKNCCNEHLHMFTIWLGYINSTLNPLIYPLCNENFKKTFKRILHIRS
T16 sequence (P32245 whole entry): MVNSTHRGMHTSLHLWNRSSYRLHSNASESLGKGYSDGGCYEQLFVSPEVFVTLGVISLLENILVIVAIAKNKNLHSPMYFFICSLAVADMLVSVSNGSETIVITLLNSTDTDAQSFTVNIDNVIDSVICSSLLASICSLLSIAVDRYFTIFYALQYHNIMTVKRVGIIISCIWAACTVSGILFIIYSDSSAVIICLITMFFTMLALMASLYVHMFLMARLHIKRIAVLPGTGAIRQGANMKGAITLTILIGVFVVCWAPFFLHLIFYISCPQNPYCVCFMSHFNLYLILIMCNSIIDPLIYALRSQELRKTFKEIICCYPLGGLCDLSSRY

SMILES: Nc1ccccc1NC(=O)CCCCCC(=O)Nc1ccccc1 [Compound 4b]
IC50 ([1]; 24 h pre-incubation with cells (maximal), read-out: cellular IC50, Boc_Lys_Ac substrate ('Class I' HDAC inhibition)): 1.8 µM
IC50 ([1]; Jurkat E6.1, standard protocol, total incubation time 5 h, read-out: cellular IC50, Boc_Lys_Ac substrate (Class I inhibition)): 5.3 µM
IC50 ([1]; dilution prepared 21 h previously in DMSO or aqueous buffer, no pre-incubation with cells, read-out: cellular IC50, Boc_Lys_Ac substrate): 15 µM
IC50 ([1]; freshly prepared compound dilution, no pre-incubation with cells, read-out: cellular IC50, Boc_Lys_Ac substrate): 16 µM
IC50 ([1]; no pre-incubation with cells, read-out: cellular IC50, Boc_Lys_Ac substrate): 16 µM
% inhibition of control specific binding [2]: 0%
inhibition at 10 µM [3]: 5%
% inhibition of control specific binding [4]: 7%
% inhibition of control specific binding [5]: 0%
inhibition at 10 µM [6]: 3%
inhibition at 10 µM [7]: 10%
inhibition at 10 µM [8]: 13%
inhibition at 10 µM [9]: 10%
% inhibition of control specific binding [10]: 5%
% inhibition of control specific binding [11]: 2%
inhibition at 10 µM [12]: 0%
inhibition at 10 µM [13]: 14%
inhibition at 10 µM [14]: 2%
inhibition at 10 µM [15]: 2%
inhibition at 10 µM [16]: 0%
inhibition at 10 µM [17]: 8%
inhibition at 10 µM [18]: 4%
inhibition at 10 µM [19]: 7%
inhibition at 10 µM [20]: 0%
% inhibition of control specific binding [21]: 14%
inhibition at 10 µM [22]: 0%
inhibition at 10 µM [23]: 1%
inhibition at 10 µM [24]: 5%
inhibition at 10 µM [25]: 0%
inhibition at 10 µM [26]: 9%
inhibition at 10 µM [27]: 10%
inhibition at 10 µM [28]: 6%
inhibition at 10 µM [29]: 72%
Ki ([29]; follow up concentration-effect curve): 8.6 µM

% inhibition of control specific binding [2]: 13%
inhibition at 10 µM ([3]; 10 μM): 5%
% inhibition of control specific binding [4]: 19%
% inhibition of control specific binding [5]: 0%
inhibition at 10 µM ([6]; 10 μM): 2%
inhibition at 10 µM ([7]; 10 μM): 11%
inhibition at 10 µM ([8]; 10 μM): 31%
inhibition at 10 µM ([9]; 10 μM): 45%
% inhibition of control specific binding [10]: 73%
% inhibition of control specific binding [11]: 3%
inhibition at 10 µM ([12]; 10 μM): 4%
inhibition at 10 µM ([13]; 10 μM): 40%
inhibition at 10 µM ([14]; 10 μM): 23%
inhibition at 10 µM ([15]; 10 μM): 2%
inhibition at 10 µM ([16]; 10 μM): 9%
inhibition at 10 µM ([17]; 10 μM): 11%
inhibition at 10 µM ([18]; 10 μM): 12%
inhibition at 10 µM ([19]; 10 μM): 18%
inhibition at 10 µM ([20]; 10 μM): 3%
% inhibition of control specific binding [21]: 5%
inhibition at 10 µM ([22]; 10 μM): 8%
inhibition at 10 µM ([23]; 10 μM): 0%
inhibition at 10 µM ([24]; 10 μM): 9%
inhibition at 10 µM ([25]; 10 μM): 1%
inhibition at 10 µM ([26]; 10 μM): 1%
inhibition at 10 µM ([27]; 10 μM): 11%
inhibition at 10 µM ([28]; 10 μM): 5%
inhibition at 10 µM [29]: 68%
IC50 ([29]; read-out: IC50, displacement of CCK1 agonist radioligand binding): 6.1 µM
SMILES: O=C(CCCCCc1nc2ccccc2[nH]1)Nc1ccccc1 [Compound C1, 6-(1-H-benzo[d]imidazol-2-yl)-N-phenylhexanamide]
activity in the Class I cellular HDAC (Boc_Lys_Ac) assay ([1]; up to 50 µM, 5 h incubation): no activity
